{"source": "PubChem BioAssay AID328", "about": "(DTP/NCI, 2004)", "system": "BDF1 mice, P388 leukemia ip, median survival T/C", "assay": "NCI In Vivo Anticancer Drug Screen. Data for tumor model P388 Leukemia (intraperitoneal) in B6D2F1 (BDF1) mice", "settings": "endpoint: median survival time, higher = longer survival", "procedure,_shortened": "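Vehicle-dosed animals serve as the reference; survival of compound-dosed, tumour-implanted mice is divided by it.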", "key": {"[1]": {"settings": "dose: 12.5 mg/kg/injection, schedule: Q01DX009 (ip), vehicle: saline"}, "[2]": {"settings": "dose: 25.0 mg/kg/injection, schedule: Q01DX009 (ip), vehicle: saline"}}, "note": "Where “and” joins values, the source holds several entries; their conditions need not be identical. Identical values can stand only once. Toxic doses and inconclusive results are not listed.", "data": [{"smiles": "O=P(c1ccccc1)(N1CC1)N1CC1", "values": [{"measurement": "T/C", "setting": "dose: 7.5 mg/kg/injection, schedule: Q01DX009 (ip), vehicle: saline", "value": "109 % of control"}, {"measurement": "T/C", "setting": "dose: 15.0 mg/kg/injection, schedule: Q01DX009 (ip), vehicle: saline", "value": "123 % of control"}, {"measurement": "T/C", "setting": "dose: 30.0 mg/kg/injection, schedule: Q01DX009 (ip), vehicle: saline", "value": "119 % of control"}]}, {"smiles": "Cc1cccc(NC(=O)c2ccccc2C(=O)O)c1C", "values": [{"measurement": "T/C", "setting": "dose: 100.0 mg/kg/injection, schedule: Q04DX003 (ip), vehicle: Klucel (hydroxypropylcellulose) (HPC)", "value": "91 % of control"}, {"measurement": "T/C", "setting": "dose: 200.0 mg/kg/injection, schedule: Q04DX003 (ip), vehicle: Klucel (hydroxypropylcellulose) (HPC)", "value": "91 % of control"}, {"measurement": "T/C", "setting": "dose: 400.0 mg/kg/injection, schedule: Q04DX003 (ip), vehicle: Klucel (hydroxypropylcellulose) (HPC)", "value": "100 % of control"}]}, {"smiles": "COC(=O)C(C)C(=O)OC", "values": [{"measurement": "T/C", "setting": "dose: 100.0 mg/kg/injection, schedule: Q01DX001 (ip), vehicle: saline", "value": "100 % of control"}, {"measurement": "T/C", "setting": "dose: 100.0 mg/kg/injection, schedule: Q01DX009 (ip), vehicle: saline", "value": "90 % of control"}, {"measurement": "T/C", "setting": "dose: 200.0 mg/kg/injection, schedule: Q01DX001 (ip), vehicle: saline", "value": "100 % of control"}, {"measurement": "T/C", "setting": "dose: 200.0 mg/kg/injection, schedule: Q01DX009 (ip), vehicle: saline", "value": "100 % of control"}, {"measurement": "T/C", "setting": "dose: 400.0 mg/kg/injection, schedule: Q01DX001 (ip), vehicle: saline", "value": "113 % of control"}, {"measurement": "T/C", "setting": "dose: 400.0 mg/kg/injection, schedule: Q01DX009 (ip), vehicle: saline", "value": "109 % of control"}]}, {"smiles": "CC(=O)O.CC(=O)O.[NH-]C(CCC(N)=O)C(=O)O.[NH-]C(CCC(N)=O)C(=O)O.[Ni+2]", "note": "(configuration not stated)", "values": [{"measurement": "T/C", "setting": "[1]", "value": "104 % of control"}, {"measurement": "T/C", "setting": "[2]", "value": "93 % of control"}]}, {"smiles": "O=[N+]([O-])c1ccc2c(c1)C(Br)c1ccccc1-2", "note": "(configuration not stated)", "values": [{"measurement": "T/C", "setting": "dose: 50.0 mg/kg/injection, schedule: Q01DX009 (ip), vehicle: Klucel (hydroxypropylcellulose) (HPC)", "value": "90 % of control"}, {"measurement": "T/C", "setting": "dose: 100.0 mg/kg/injection, schedule: Q01DX009 (ip), vehicle: Klucel (hydroxypropylcellulose) (HPC)", "value": "118 % of control"}, {"measurement": "T/C", "setting": "dose: 200.0 mg/kg/injection, schedule: Q01DX009 (ip), vehicle: Klucel (hydroxypropylcellulose) (HPC)", "value": "118 % of control"}]}, {"smiles": "COC(=O)C(C#N)=N/C=C/C=C1/N(C)c2ccccc2C1(C)C", "values": [{"measurement": "T/C", "setting": "dose: 50.0 mg/kg/injection, schedule: Q01DX009 (ip), vehicle: saline with Tween-80", "value": "96 % of control"}, {"measurement": "T/C", "setting": "dose: 100.0 mg/kg/injection, schedule: Q01DX009 (ip), vehicle: saline with Tween-80", "value": "92 % of control"}, {"measurement": "T/C", "setting": "dose: 200.0 mg/kg/injection, schedule: Q01DX009 (ip), vehicle: saline with Tween-80", "value": "99 % of control"}]}, {"smiles": "O=C(O)C1(O)CC(O)C(O)C(O)C1", "note": "(configuration not stated)", "values": [{"measurement": "T/C", "setting": "dose: 100.0 mg/kg/injection, schedule: Q04DX002 (ip), vehicle: saline with Tween-80", "value": "96 % of control"}, {"measurement": "T/C", "setting": "dose: 200.0 mg/kg/injection, schedule: Q04DX002 (ip), vehicle: saline with Tween-80", "value": "94 % of control"}, {"measurement": "T/C", "setting": "dose: 400.0 mg/kg/injection, schedule: Q04DX002 (ip), vehicle: saline with Tween-80", "value": "86 % of control"}]}, {"smiles": "COc1cccc2c1C(=O)c1c(O)c3c(c(O)c1C2=O)C[C@@](O)(C(O)O)C[C@@H]3OC1CC(N)C(O)C(C)O1", "note": "(some centres not stated)", "values": [{"measurement": "T/C", "setting": "dose: 4.0 mg/kg/injection, schedule: Q01DX009 (ip), vehicle: water", "value": "169 % of control"}, {"measurement": "T/C", "setting": "dose: 8.0 mg/kg/injection, schedule: Q01DX009 (ip), vehicle: water", "value": "87 % of control"}, {"measurement": "T/C", "setting": "dose: 16.0 mg/kg/injection, schedule: Q01DX009 (ip), vehicle: water", "value": "87 % of control"}]}, {"smiles": "O=C1C2CCCCC1C(N1CCCC1)CC2", "note": "(configuration not stated)", "values": [{"measurement": "T/C", "setting": "dose: 100.0 mg/kg/injection, schedule: Q04DX003 (sc), vehicle: olive oil, sesame oil, peanut oil", "value": "100 % of control"}, {"measurement": "T/C", "setting": "dose: 200.0 mg/kg/injection, schedule: Q04DX003 (sc), vehicle: olive oil, sesame oil, peanut oil", "value": "86 % of control"}, {"measurement": "T/C", "setting": "dose: 400.0 mg/kg/injection, schedule: Q04DX003 (sc), vehicle: olive oil, sesame oil, peanut oil", "value": "100 % of control"}]}, {"smiles": "CNC(CNC(CO)CC(C)C)Cc1ccc(OCc2ccccc2)cc1", "note": "(configuration not stated)", "values": [{"measurement": "T/C", "setting": "[1]", "value": "104 % of control"}, {"measurement": "T/C", "setting": "[2]", "value": "100 % of control"}]}, {"smiles": "N#Cc1ccc(C(=O)CC(O)(C(F)(F)F)C(F)(F)F)cc1", "values": [{"measurement": "T/C", "setting": "dose: 66.0 mg/kg/injection, schedule: Q04DX003 (ip), vehicle: saline with Tween-80", "value": "104 % of control"}, {"measurement": "T/C", "setting": "dose: 100.0 mg/kg/injection, schedule: Q04DX003 (ip), vehicle: saline with Tween-80", "value": "95 % of control"}, {"measurement": "T/C", "setting": "dose: 150.0 mg/kg/injection, schedule: Q04DX003 (ip), vehicle: saline with Tween-80", "value": "104 % of control"}, {"measurement": "T/C", "setting": "dose: 200.0 mg/kg/injection, schedule: Q04DX003 (ip), vehicle: saline with Tween-80", "value": "100 % of control"}, {"measurement": "T/C", "setting": "dose: 400.0 mg/kg/injection, schedule: Q04DX003 (ip), vehicle: saline with Tween-80", "value": "95 % of control"}]}, {"smiles": "CCOc1ccc([N+](=O)[O-])cc1CN(CC)CC", "values": [{"measurement": "T/C", "setting": "dose: 5.0 mg/kg/injection, schedule: Q01DX009 (ip), vehicle: saline", "value": "104 % of control"}, {"measurement": "T/C", "setting": "dose: 10.0 mg/kg/injection, schedule: Q01DX009 (ip), vehicle: saline", "value": "95 % of control and 100 % of control"}, {"measurement": "T/C", "setting": "dose: 20.0 mg/kg/injection, schedule: Q01DX009 (ip), vehicle: saline", "value": "113 % of control"}]}, {"smiles": "CCCC=C=CCN(C)C", "values": [{"measurement": "T/C", "setting": "dose: 12.5 mg/kg/injection, schedule: Q04DX002 (ip), vehicle: saline", "value": "96 % of control"}, {"measurement": "T/C", "setting": "dose: 25.0 mg/kg/injection, schedule: Q04DX002 (ip), vehicle: saline", "value": "100 % of control"}, {"measurement": "T/C", "setting": "dose: 50.0 mg/kg/injection, schedule: Q04DX002 (ip), vehicle: saline", "value": "112 % of control"}]}]}
